Test results reported in paper PMC4644980, “The FDA-approved natural product dihydroergocristine reduces the production of the Alzheimer’s disease amyloid-β peptides” (Scientific Reports, 2015).
Where “and” joins values, the source holds several entries; their conditions need not be identical. Equal entries are not always repeated. Structures can show the parent of a compound that is named as a salt.

Legend:
[1] = system: γ-secretase subunits (mNCT, PS1-NTF); assay: Western blot of γ-secretase subunits in HEK293 or fibroblast cells; format: cell-based
Procedure: for 10 min before adding 25 µl of the stop solution. The fluorescence was monitored with a microplate reader (emission at 590 nm after excitation at 560 nm).
Western blot and antibodies
WT HEK293 or fibroblast cells were collected and lysed in 1% Nonidet P-40-HEPES buffer, and equal amounts of proteins [normalized by BCA (Pierce)] were separated by SDS-PAGE onto a 12% Tris-glycine gel, transferred onto a PVDF membrane (Bio-Rad, USA) and further probed with antibody CT15 (for APP/APP-CTFs, 1:2000, […]
(1:1000; Abcam, Cambridge, MA, USA) for PS1-NTF, UD-1 (for Pen-2, 1:500; a gift of Dr. Helena Karlström, Karolinska Institute, Sweden), NCT164 (for NCT, 1:1000; BD Bioscience, Bedford, MA, USA) as well as with an antibody for β-actin (1:2000, Abmart). For the analysis of Notch NICD, cell extracts were separated by SDS-PAGE onto a 10% Tris-glycine gel, transferred onto a PVDF membrane and blotted for NICD with an anti-Notch Ab1744 antibody (for the free N-terminus of NICD, 1:500, Cell Signaling Technology, Beverly, MA, USA).
Samples from in vitro γ-secretase activity assays were run on 16% Tricine-SDS-PAGE gels and transferred onto PVDF to detect Aβ and AICD-Flag with 6E10 (1:1000, Covance, Berkeley, CA, USA) and CT15 antibodies (1:5000, Sigma-Aldrich), […]

γ-secretase = γ-secretase (Homo sapiens, UniProt P49768+Q92542); assay: cell-based luciferase reporter assay for γ-secretase inhibition (T100 cells); design: endogenous in cells; host or cells: T-REx HeLa cells (T100) stably transfected with the substrate C99-Gal4-VP16 and a luciferase reporter; details: 24 h, read-out: IC50 for inhibiting the activity of γ-secretase in T100 cells
Procedure: To identify natural product-based bioactive inhibitors of γ-secretase, we screened 417 natural products by using a cell-based luciferase reporter assay for γ-secretase inhibition (T100, see Methods), which we recently developed in TREx HeLa cells according to the methodology described in ref. [17]. […] Thus, this assay is sufficiently sensitive to detect the inhibitory effects of 100 nM DAPT on cellular γ-secretase activity. Additionally, this new cell-based assay tolerated up to 2% DMSO, which is a great advantage when screening inhibitors in a high-throughput format.
T-REx-HeLa cells (T100) stably overexpressing C99-Gal4-VP16 and luciferase were generated according to the method described in refs [17],[30]. For details, see Supplementary Information.
Cell-based γ-secretase assays were performed using the T100 cell line according to the methods detailed in ref. [30] (for details, see Supplementary information). […]
concentrations of substrate at 37 °C for 4 h, after which the enzymatic reactions were stopped by adding 0.5% SDS (final concentration). The samples were analyzed by Western Blot for AICD-Flag or Aβ. […]

Q: `CC(C)[C@@]1(NC(=O)[C@@H]2C[C@@H]3c4cccc5[nH]cc(c45)C[C@H]3N(C)C2)O[C@@]2(O)[C@@H]3CCCN3C(=O)[C@H](Cc3ccccc3)N2C1=O` [DHEC, Dihydroergocristine methanesulfonate salt] was tested. Which “assembly and maturation of the protease complex (mNCT, PS1-NTF)” value [1] did it give?
A: Its value is “not altered”.

Q: What about the IC50 (γ-secretase) of the same compound?
A: Its IC50 is 20 µM and ~25 µM.
